Test results as given in US5149778A, “Cyclic peptides for treating herpes infections” (Bio-Mega, Inc., priority 1989, dated 1992).
Where a SMILES comes first, the peptide text is derived from it. Bridges are numbered along the chain shown (N, C = ends). [ ]: non-standard residue; d: D form. NMeV = CN[C@H](C(=O)O)C(C)C

Each molecule was assayed against T1, HSV-1 ribonucleotide reductase (Human herpesvirus 1, UniProt P08543) (assay: Inhibition of Herpes Simplex Virus (HSV, type 1) ribonucleotide reductase). Conditions: partially purified enzyme from BHK-21/C13 cells infected with strain F HSV-1; relative to control without peptide; mean of four assays; read-out: IC50 (concentration of the peptide producing 50% of the maximal inhibition of enzyme activity).
T1 construct: obtained from quiescent BHK-21/C13 cells infected with strain F HSV-1 virus; endogenous in cells; host or cells: quiescent BHK-21/C13 cells infected with HSV-1 strain F (10 pfu/cell); partially purified viral enzyme
Type: biochemical
Source text: Inhibition of Herpes Simplex Virus (HSV, type 1) Ribonucleotide Reductase
HSV-1 ribonucleotide reductase (partially purified) was obtained from quiescent BHK-21/C13 cells infected with strain F HSV-1 virus at 10 plaque forming units/cell as described by E. A. Cohen et al., J. Gen. Virol., 66, 733 (1985).
The procedure described by P. Gaudreau et al., J. Biol, Chem., 262, 12413 (1987) was employed. The assay result for each peptide is expressed as the concentration of the peptide producing 50% of the maximal inhibition (IC50) of enzyme activity. The number of units of the enzyme preparation used in each assay was constant, based on the specific activity of the enzyme preparation. The results are relative to the activity obtained in control experiments without peptide and represent the mean of four assays that varied less than 10% with each other.

T1 sequence (P08543 whole entry): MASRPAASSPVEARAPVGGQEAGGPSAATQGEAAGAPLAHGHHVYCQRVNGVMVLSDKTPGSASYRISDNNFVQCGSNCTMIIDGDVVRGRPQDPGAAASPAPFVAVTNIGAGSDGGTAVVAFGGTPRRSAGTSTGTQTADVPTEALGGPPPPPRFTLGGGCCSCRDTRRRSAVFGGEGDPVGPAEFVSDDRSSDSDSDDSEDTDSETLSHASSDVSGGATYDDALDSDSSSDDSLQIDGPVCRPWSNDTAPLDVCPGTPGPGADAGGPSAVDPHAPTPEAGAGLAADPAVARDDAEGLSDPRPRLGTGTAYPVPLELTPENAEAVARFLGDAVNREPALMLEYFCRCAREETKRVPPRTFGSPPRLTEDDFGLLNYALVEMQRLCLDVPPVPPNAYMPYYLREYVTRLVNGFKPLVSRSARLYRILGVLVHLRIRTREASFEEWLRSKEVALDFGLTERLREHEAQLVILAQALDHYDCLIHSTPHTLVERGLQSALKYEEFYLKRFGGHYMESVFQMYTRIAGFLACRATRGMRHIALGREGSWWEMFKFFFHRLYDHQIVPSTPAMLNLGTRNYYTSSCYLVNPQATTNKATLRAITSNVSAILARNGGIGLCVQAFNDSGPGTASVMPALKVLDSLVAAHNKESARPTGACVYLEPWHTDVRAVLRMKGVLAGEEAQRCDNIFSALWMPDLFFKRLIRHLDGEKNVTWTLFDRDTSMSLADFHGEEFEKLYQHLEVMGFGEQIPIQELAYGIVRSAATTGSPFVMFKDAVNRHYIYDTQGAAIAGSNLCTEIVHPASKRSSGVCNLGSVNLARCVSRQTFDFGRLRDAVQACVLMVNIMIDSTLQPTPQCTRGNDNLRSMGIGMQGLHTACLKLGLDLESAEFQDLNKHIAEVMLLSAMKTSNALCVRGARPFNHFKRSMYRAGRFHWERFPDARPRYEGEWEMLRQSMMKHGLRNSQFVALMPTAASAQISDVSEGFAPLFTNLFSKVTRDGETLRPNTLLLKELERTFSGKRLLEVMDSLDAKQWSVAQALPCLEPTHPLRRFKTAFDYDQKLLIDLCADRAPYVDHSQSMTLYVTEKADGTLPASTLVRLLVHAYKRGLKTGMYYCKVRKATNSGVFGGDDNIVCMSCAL

In order of falling IC50:
1. CC[C@H](C)[C@@H]1NC(=O)[C@H](C(C)C)N(C)C(=O)[C@H](Cc2ccc(O)cc2)NC(=O)C[C@@H](C(=O)N[C@@H](CC(=O)O)C(=O)N[C@@H](CC(C)C)C(=O)O)NC1=O [example 2] (Y[NMeV]IDDL-OH; lactam N-4)  140 µM
2. CC[C@H](C)[C@@H]1NC(=O)[C@H](C(C)C)NC(=O)[C@H]([C@@H](C)O)NC(=O)CNC(=O)[C@H](C)NC(=O)[C@H](Cc2ccc(O)cc2)NC(=O)C[C@@H](C(=O)N[C@@H](CC(=O)O)C(=O)N[C@@H](CC(C)C)C(=O)O)NC1=O [example 3] (YAGTVIDDL-OH; lactam N-7)  16 µM
3. CC[C@H](C)[C@@H]1NC(=O)[C@H](C(C)C)NC(=O)[C@H](Cc2ccc(O)cc2)NC(=O)C[C@@H](C(=O)N[C@@H](CC(=O)O)C(=O)N[C@@H](CC(C)C)C(=O)O)NC1=O [example 1] (YVIDDL-OH; lactam N-4)  14.3 µM
